The term half-life denotes the time in which the quantity being followed falls by half. By viability is commonly meant a read-out of living cells in per cent, often relative to untreated cells.

The values that follow come from patent publication US20220356169A1, “TETRAZINES FOR HIGH CLICK RELEASE SPEED AND YIELD” (priority 2019, published 2022).

Data set [1] is described as follows: Second-order rate constant of the IEDDA reaction with TCO 3.2, stopped-flow UV-Vis, pseudo first-order conditions. The class given is physicochemical. The note with it: 25% MeCN/PBS at 20° C.; mean ± SD (n = 5). The procedure:
(§1) The second-order rate constant of the IEDDA reaction between model TCO 3.2 and activators 2.7 or 2.8 in MeCN at 20° C. was determined (n=1) by UV-Vis spectrometry under second-order conditions. A cuvette was filled with a solution of activator (3 mL 0.083 mM in MeCN), and equilibrated at 20° C. Next, a solution of TCO 3.2 (10.0 μL, 25 mM in DMSO) was added. The absorption at 540 nm was measured every second in a time course experiment. From the decay of this absorption, the conversion x was calculated. The second-order rate constant k2 was determined from the slope of the curve of a plot of 1/c-1/c0 versus time. The second-order rate constant of the IEDDA reaction between model TCO 3.2 and activators 2.7, 2.8, 2.14, 2.16, or 2.17 in 25% MeCN/PBS at 20° C. was determined (n=5) by stopped-flow UV-Vis spectrometry under pseudo first-order conditions. Tetrazine solutions (0.25 mM in 25% MeCN/PBS) and TCO 3.2 (3.45 mM in 25% MeCN/PBS) were mixed in a volume ratio of 1:1, resulting in a concentration of 0.125 mM and 1.73 mM, respectively. The absorption at 520 nm was measured every 50 ms, and from the decay of this absorption, the pseudo first-order rate constant k1′ was determined by a nonlinear Simplex regression analysis of the data points using BioKine software. The second-order rate constant k2 was calculated: k2=k1′/c,TCO. As expected for a cycloaddition reaction, the reactivity in PBS is much higher than in MeCN, and importantly the tetrazines of the invention are at least 1 order of magnitude more reactive than the known and high-releasing 3,6-bismethyl-tetrazine (2.17), while giving similar release yields (see Example 7).

A short description of data set [2]: Second-order rate constant of the IEDDA reaction with TCO 3.2, UV-Vis under second-order conditions in MeCN. As to conditions: MeCN at 20° C.; n = 1. The class given is physicochemical. Here is the method: as §1, with “As expected for a cycloaddition reaction, the reactivity in PBS is much higher than in MeCN, and importantly the tetrazines of the invention are at least 1 order of magnitude more reactive than the known and high-releasing 3,6-bismethyl-tetrazine (2.17), while giving similar release yields (see Example 7).” left out

A short description of data set [3]: Activator stability in PBS at rt (UV decay at 520 nm). The class given is physicochemical. As to conditions: mean ± SD (n = 3). Here is the method: The assessment of activator stability was performed in PBS at rt. Solutions in DMSO (2.5 mM, 20 μL) were diluted with PBS (3.00 mL), filtered, and incubated at rt. The decrease of the absorption band at 520 nm was monitored using UV spectroscopy.

Data set [4] deals with ADC AVP0458-TCO-MMAE. The data set can be described thus: Triggered drug (MMAE) release from ADC in 50% mouse plasma, HPLC-SIM-MS. The note with it: for MMAE release from ADC AVP0458-TCO-MMAE, Release (%) / MMAE release level, in words: 50% mouse plasma, 37° C.; for MMAE release level, in words: after 24h incubation. Here is the method: In a 1.5 mL vial, the following was combined: 650 μL mouse plasma, 600 μL PBS, 20 μL ADC (1.62 μg/μL in PBS) and 7.5 μL d8-MMAE solution (0.167 μg/μL, internal standard). Next, aliquots of 20 μL were prepared to which 5.2 μL of a tetrazine solution (0.25 mM in 1:1 DMSO/H2O) was added and the solution was incubated at 37° C. At various times, 100 μL of cold MeCN was added to the aliquot and the mixture was vortexed, stored at 4° C. for 30 min. and centrifuged. 20 μL of supernatant was taken and combined with 100 μL of 1% formic acid (aq) solution. This sample was analysed with HPLC-SIM-MS to quantify the ratio of free MMAE and d8-MMAE, which is a measure of the release yield.

A short description of data set [5]: Triggered release of Construct-A from TCO trigger, HPLC-MS/PDA. The procedure:
At the specified time point, the sample was analyzed by HPLC-MS/PDA, and the release yield was determined from the observed amounts of IEDDA adducts, elimination product, and/or released Construct. In case the release was not complete, the sample was incubated at 37° C. for additional time and analyzed once again.

The subject of data set [6] is 125I-labeled CC49 conjugate. The data set can be described thus: Triggered radiolabel release from 125I-labeled CC49-3.6 conjugate, SEC. As to conditions: 2h in PBS at 37° C. Here is the method:
The anti-TAG72 mAb CC49 was conjugated with 3.6 in borate buffer pH 8.0 (containing 1 mM DTPA) using 3 equiv. TCEP. After conjugation, the product was dialyzed extensively (20 kDa MW cut-off membrane) in PBS. The CC49-3.6 the conjugate was radiolabeled using a previously described ^125I-labeled tetrazine [Albu et al., Bioconjug Chem 2016, 27, 207-216] in PBS at 37° C. for 1 h. Due to the higher reactivity of the TCO tag on the outside vs the cleavable TCO trigger on the inside the radiolabeling occurred selectively via the TCO tag. The crude labeling mixture was purified using a desalting cartridge (Zeba spin column, 40 kDa MW cut-off) then the isolated ^125I-labeled CC49 conjugate was incubated with activator 2.7 for 2h in PBS at 37° C., resulting in reaction with the TCO trigger, yielding 88.6% radiolabel release, as confirmed by SEC analysis.

Data set [7] in a line: Cell proliferation assay (MTT). The class given is cell-based. As to conditions: human, 3 days incubation, mean ± SEM (n = 6), read-out: LS174T cell viability (%); for viability at 72 h, 0.01 μM: 0.01 μM activator; for viability at 72 h, 0.1 μM: 0.1 μM activator; for viability at 72 h, 1 μM: 1 μM activator. Here is the method: The human colon carcinoma LS174T cell line was obtained from the American Type Culture Collection and cultured in RPMI-1640 medium supplemented with 2 mM glutamine and 10% heat inactivated fetal calf serum. Twenty-four hours prior to the experiment, the cells were plated in 96-well plates at a 5000 cells/well density. The cells were then incubated with serial dilutions (10 nM-1 μM; n=6) of activators 2.7, 2.8, 2.14, 2.16, 2.17, 2.18 and 2.19 in culture medium for 72h at 37° C. The % cell proliferation was assessed by an MTT assay, in comparison to cells incubated in culture medium without activator. No toxicity was observed when the LS174T cells were incubated with the tested activators (and possible metabolites formed in the presence of serum) for 3-days at a 0.01-1 μM activator concentration.

Data set [8] deals with TCO Trigger on tumor-bound ADC. Put plainly: In vivo reactivity between ADC AVP0458-TCO-MMAE and tetrazine activators (tumor activation study). Set-up: species or system mice. As to conditions: higher dose (dose 5×: ca. 16.7 μmol/kg). The procedure: (§2) Female nude Balb/C mice were subcutaneously inoculated ca. 1×10^6 LS174T cells in the hind limb. Biodistribution studies started when the tumors reached 0.1-0.2 cm^3 size. Experiments were carried out to evaluate the reactivity between the TCO Trigger on tumor-bound ADC and activators 2.7, 2.8, 2.14 and 2.16 in LS174T xenografts, as previously performed for other activators [Rossin et al Nature Communications 2018, 9, 1484]. The activators were administered at a 20- to 100-lower dose than that used in previous activation and therapy studies (ca. 0.335 mmol/kg). […] Groups of tumor bearing mice (n=4) were injected with ^125I-labeled ADC (2 mg/kg) followed 48 h later by the activators (dose 1×: ca. 3.3 μmol/kg; dose 5×: ca. 16.7 μmol/kg) and, after 1 h, by [^111In]In-2.20 (ca. 0.33 μmol/kg). One group was injected with the same amount of ^125I-labeled ADC followed only by ^111In-2.20 49 h later. One group was injected only with ^111In-2.20 (non-specific probe binding). All mice were euthanized 23 h post-probe injection and the ^125I and ^111In uptakes in tumors were measured by γ-counting.

Data set [9] relates to LS174T xenografts. Put plainly: MMAE measurement in tumors. The class given is in vivo, mice. The note with it: 24 h after administration of activator at dose 1×. Here is the method:
as §2
The concentration of MMAE released in tumors was measured as previously reported [Rossin et al Nature Communications 2018, 9, 1484]. […] For this reason, activator 2.16 was selected for a therapy study in combination with the click-cleavable ADC. At the doses of tc-ADC (4 mg/kg) and 2.16 (dose 10×; 33.5 μmol/kg) used for therapy study, a high level of 339±45 nM free MMAE was detected in tumors.

Setting [10] is: 2 min after reaction with activator.

As for `Oc1cccnc1-c1nnc(-c2ncccc2O)nn1` [2.7, 2,2′-(1,2,4,5-Tetrazine-3,6-diyl)bis(pyridin-3-ol)], the “Calculated k2 values for the reaction between tetrazine activators and TCO 3.2 in PBS” value in [1] was 397 ± 4 M⁻¹ s⁻¹. The “Calculated k2 values for the reaction between tetrazine activators and TCO 3.2 in MeCN” value in data set [2] is 68 M⁻¹ s⁻¹. This molecule showed a half-life at 16.6 µM in data set [3] of 37.8 ± 0.8 h. For the same molecule, the “MMAE release from ADC AVP0458-TCO-MMAE, Release (%)” value came to 53.8% in data set [4] (setting [10]); 80.1% in [4] (10 min); 80.9% in [4] (1 h); 83.8% in data set [4] (5 h); 98.4 ± 0.3% in data set [4] (24 h, mean ± SD (n = 3)). In addition, the “MMAE release level, in words” value in data set [4] is on record as “as high as that obtained with the less reactive 2.17”. Further, the “MMAE release speed, in words” value in [4] (compared with 2.17) is recorded as “faster”. For the same molecule, the Construct release % is reported as 18 h: 100% in data set [5] (TCO 3.10, doxorubicin, 18 h, 37° C.); 5 min: 52% in [5] (TCO 3.10, released construct doxorubicin, 5 min); 5 min: 100% in data set [5] (TCO 3.11, released construct doxorubicin, 5 min); 2 h: 80% in [5] (TCO 3.2, dimethylamine, 2 h, incubated at 37° C.); 20 h: 95% in data set [5] (TCO 3.2, dimethylamine, 20 h, incubated at 37° C.); 5 min: 50% in [5] (TCO 3.2, released construct dimethylamine, 5 min, MeCN/PBS). Moreover, the Construct release % is given as 5 min: 100% in data set [5] (TCO 3.23, released construct dimethylamine, 5 min); 5 min: 100% in [5] (TCO 3.32, released construct dimethylamine, 5 min); 24 h: 88% in [5] (TCO 3.7, 3-phenylpropan-1-ol, 24 h, 37° C.); 48 h: 95% in [5] (TCO 3.7, 3-phenylpropan-1-ol, 48 h, 37° C.); 5 min: 74% in data set [5] (TCO 3.7, released construct 3-phenylpropan-1-ol, 5 min); 24 h: 90% in data set [5] (TCO 3.8, benzoic acid, 24 h, 37° C.). In addition, the Construct release % in data set [5] (TCO 3.8, released construct benzoic acid, 5 min) is listed as 5 min: 45%; in data set [5] (TCO 3.9, phenol, 24 h, 37° C.) it was 24 h: 93%; in data set [5] (TCO 3.9, released construct phenol, 5 min), 5 min: 50%. The same molecule displayed a radiolabel release in [6] of 88.6%. In [7], the viability at 72 h, 0.01 μM was determined as 93.6 ± 4.1%. The viability at 72 h, 0.1 μM in data set [7] was determined as 91.5 ± 4.4%. Besides, the viability at 72 h, 1 μM in [7] amounted to 98.2 ± 4.6%.
For `O=C(CCCC(=O)Nc1cccnc1-c1nnc(-c2ncccc2NC(=O)CCCC(=O)NCCOCCOCCOCCOCCOCCOCCOCCOCCOCCO)nn1)NCCOCCOCCOCCOCCOCCOCCOCCOCCOCCO` [2.14, N^1,N^1′-(2,2′-(1,2,4,5-Tetrazine-3,6-diyl)bis(pyridine-3,2-diyl))bis(N^5-(29-hydroxy-3,6,9,12,15,18,21,24,27-nonaoxanonacosyl)glutaramide)], the “Calculated k2 values for the reaction between tetrazine activators and TCO 3.2 in PBS” value in data set [1] was 748 ± 20 M⁻¹ s⁻¹. Further, the half-life at 16.6 µM in data set [3] was 8.7 ± 0.1 h. The “MMAE release from ADC AVP0458-TCO-MMAE, Release (%)” value in [4] (setting [10]) was determined as 0.6%; in [4] (10 min) it was 2.1%; in data set [4] (1 h), 16.6%; in data set [4] (5 h) it was 49.9%; in [4] (24 h, mean ± SD (n = 3)) it was 80.5 ± 0.3%. Further, the “MMAE release level, in words” value in data set [4] was “as high as that obtained with the less reactive 2.17”. For the same molecule, the viability at 72 h, 0.01 μM in data set [7] was 107 ± 3%. Further, in data set [7], the viability at 72 h, 0.1 μM was found to be 104 ± 2.7%. Moreover, the viability at 72 h, 1 μM in [7] stood at 97 ± 2.5%. The “on-tumor reaction yield with the ADC (tumor activation)” value in [8] was 94.2±1.8%. Also, the “free MMAE in tumors, comparison of activators” value in data set [9] was “No difference”.
